Laboratory results from EP4775586A1, “DEUTERATED TETRACYCLIC DERIVATIVE AND USE THEREOF” (priority 2023, dated 2025).
Where “and” joins values, the source holds several entries; their conditions need not be identical. Equal entries are not always repeated.

Columns and labels:
[1] = test system: Mycobacterium tuberculosis H37Rv; test: Minimum inhibitory concentration (MIC90) against Mycobacterium tuberculosis H37Rv, Middlebrook 7H9, 96-well plate, 15 days; type: cell-based; conditions: Mycobacterium tuberculosis, H37RV, 360 h
[2] = Pharmacokinetics and lung tissue distribution in mice, LC-MS/MS; type: in vivo, Balb/C mice; conditions: mouse, in vivo, po, 100 mg/kg
Experimental: In this example, the pharmacokinetic parameters and lung tissue distribution of the deuterated compounds YF027, YF032, YF036, and YF044 and their respective non-deuterated control compounds (A, B, C, and D) were determined.
Balb/C mice, male (1 group at each time point, 5 mice per group, 55 mice per compound in total), 7-8 weeks old, weighing about 20 g, animal source: Beijing Vital River Laboratory Animal Technology Co., Ltd.
The test compound was completely dissolved in an 8% Tween-80 aqueous solution. A 10 mg/mL drug liquid was prepared for intraperitoneal injection and intragastric administration.
Single intragastric administration was performed at a dose of 100 mg/kg. The pharmacokinetic differences between the deuterated compounds YF027, YF032, YF036, and YF044 and their respective non-deuterated controls A, B, C, and D were compared.
The mice were fasted overnight before administration. In the experiment, orbital venous blood and lung tissue were collected from the mice at time points of no administration group (0 min) and 10 min, 20 min, 30 min, 1 h, 2 h, 3 h, 4 h, 6 h, 8 h, and 24 h after intragastric administration, and about 300 µL of blood was collected from the eyeballs each time.
The collected blood sample was placed in an anticoagulation tube, and quickly inverted and mixed well. The tube was temporarily placed on ice after being labeled. The blood samples temporarily stored on ice were subjected to low-temperature centrifugation within 1 h at 4 °C at 3000 rpm for 10 min. The supernatant obtained after centrifugation was plasma. The plasma was transferred to a new centrifuge tube and stored in a refrigerator at -80 °C for subsequent detection.
The lung tissues of the mice were collected, washed with pre-cooled normal saline to remove the residual blood and tissue fluid, dried with absorbent paper, weighed with a balance, and placed into a centrifuge tube. The tubes were marked and stored in a refrigerator at -80 °C.
The concentrations of the compounds of the present disclosure and control compounds in plasma and lung tissue were determined using LC-MS/MS. Table 2. Pharmacokinetic parameters of compound YF027 of the present disclosure and control compound A

CYP2A6 = type: in vitro ADME, mouse
Experimental: (§1) This example was to detect the CYP450 metabolic enzyme phenotype of the deuterated compound YF027 and its non-deuterated control compound A (using a CYP450 enzyme metabolic phenotype research kit (recombinant enzymatic method/7 enzymes)-mouse liver microsome test).
(§2) • a. The test compound was prepared into a 40 mM stock solution for later use. 2.5 µL of the stock solution was taken and diluted with DMSO to a test compound concentration of 200 µM, and the compound at this concentration was used in subsequent tests. • b. The working solution concentration of the mixed positive substrates, phenacetin and testosterone, was 200 µM.
(§3) 1) The components of the kit were thawed in an ice bath. The mixture was well mixed by vortexing and then placed on ice for later use. 2) In addition to the microsomes, the other components of the incubation systems were mixed according to the ratios and well mixed by pipetting, and the ratios of the incubation systems are shown below; Table 6. Incubation system of positive control group
(§4) The inhibitors were quinidine, naphthoflavone, pilocarpine, sodium diethyldithiocarbamate, ticlopidine, ketoconazole, and sulfaphenazole, which corresponded to the inhibition of CYP450 enzymes CYP2D6, CYP1A2, CYP2A6, CYP2E1, CYP2C19, CYP3A4, and CYP2C9, respectively. Table 9. Incubation system of negative control group
(§5) 3) Except for the negative control group (Table 9), 3.125 µL of liver microsomes was added to each of the above incubation systems to prepare 125 µL of reaction solution. The reaction solutions were well mixed by vortexing, and then placed in a water bath at 37 °C to initiate the reaction. A timer was set. 4) At time points of 0 min and 90 min, 50 µL of reaction solution was taken, and a pre-cooled acetonitrile solution was added to the reaction solution. The mixture was quickly well mixed by vortexing to stop the reaction. 5) Mass spectrometry detection pretreatment of reaction solution
(§6) The reaction solution was cryopreserved in a refrigerator at -80 °C overnight and then centrifuged for mass spectrometry detection.
(§7) The detection values after 90 min of incubation were processed as ratios relative to the 0-min detection values to determine the metabolic rate of the compounds in different experimental groups after 90 min. The metabolic inhibition rate was then calculated using the formula: Inhibition rate (%) = (1 - metabolic rate of sample with inhibitor/metabolic rate of sample without inhibitor) × 100%, as shown in Table 10 below. […] The metabolic inhibition rate reflects the effect on the metabolic elimination of the drug after adding different selective inhibitors. Therefore, when the metabolic inhibition rate of a specific enzyme is ≥ 25%, the contribution of the specific enzyme to the clearance of the drug under study can be inferred to be ≥ 25% based on the results of the in vitro metabolism study.

CYP2C19 = type: in vitro ADME, mouse
Experimental: as §1, §2, §3, §4, §5, §6, §7

CYP2C9 = type: in vitro ADME, mouse
Experimental: as §1, §2, §3, §4, §5, §6, §7

CYP2D6 = type: in vitro ADME, mouse
Experimental: as §1, §2, §3, §4, §5, §6, §7

CYP3A4 = type: in vitro ADME, mouse
Experimental: as §1, §2, §3, §4, §5, §6, §7

CYP1A2 = biological target: T1, CYP1A2 (Mus musculus, UniProt P00186); type: in vitro ADME
T1 construct: from tissue; host or cells: mouse liver microsomes (component of a kit)
T1 sequence (P00186 1-513): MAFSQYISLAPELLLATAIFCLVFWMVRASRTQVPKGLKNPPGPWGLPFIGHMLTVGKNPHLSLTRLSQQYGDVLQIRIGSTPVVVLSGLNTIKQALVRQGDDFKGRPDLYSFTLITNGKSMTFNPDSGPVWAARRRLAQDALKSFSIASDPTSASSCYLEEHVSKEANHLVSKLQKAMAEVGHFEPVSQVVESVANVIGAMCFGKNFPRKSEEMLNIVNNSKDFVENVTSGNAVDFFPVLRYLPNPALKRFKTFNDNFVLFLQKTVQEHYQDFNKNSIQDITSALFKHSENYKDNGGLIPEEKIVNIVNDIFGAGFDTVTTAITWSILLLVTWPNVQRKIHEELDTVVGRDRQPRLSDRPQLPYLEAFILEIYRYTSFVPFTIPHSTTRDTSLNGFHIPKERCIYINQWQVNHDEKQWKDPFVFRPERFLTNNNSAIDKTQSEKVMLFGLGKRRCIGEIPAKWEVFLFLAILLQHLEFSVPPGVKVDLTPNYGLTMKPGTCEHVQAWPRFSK
Experimental: as §1, §2, §3, §4, §5, §6
as §7, with “Therefore, when the metabolic inhibition rate of a specific enzyme is ≥ 25%, the contribution of the specific enzyme to the clearance of the drug under study can be inferred to be ≥ 25% based on the results of the in vitro metabolism study.” left out

CYP2E1 = biological target: T2, CYP2E1 (Mus musculus, UniProt Q05421); type: in vitro ADME
T2 construct: from tissue; host or cells: mouse liver microsomes (component of a kit)
T2 sequence (Q05421 whole entry): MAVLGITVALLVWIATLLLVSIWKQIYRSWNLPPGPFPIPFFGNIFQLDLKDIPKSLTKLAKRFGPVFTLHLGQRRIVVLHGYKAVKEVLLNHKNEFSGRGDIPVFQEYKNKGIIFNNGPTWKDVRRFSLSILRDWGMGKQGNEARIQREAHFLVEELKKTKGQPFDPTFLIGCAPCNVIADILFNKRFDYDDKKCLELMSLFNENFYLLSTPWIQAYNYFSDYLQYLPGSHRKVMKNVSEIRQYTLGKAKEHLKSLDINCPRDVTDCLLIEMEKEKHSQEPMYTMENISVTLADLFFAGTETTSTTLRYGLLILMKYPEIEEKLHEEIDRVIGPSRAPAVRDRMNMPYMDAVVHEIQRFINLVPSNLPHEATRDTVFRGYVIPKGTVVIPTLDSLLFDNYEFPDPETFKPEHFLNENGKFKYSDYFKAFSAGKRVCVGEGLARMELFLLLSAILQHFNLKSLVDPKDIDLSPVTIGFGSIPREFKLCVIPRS
Experimental: as §1, §2, §3, §4, §5, §6
as §7, with “Therefore, when the metabolic inhibition rate of a specific enzyme is ≥ 25%, the contribution of the specific enzyme to the clearance of the drug under study can be inferred to be ≥ 25% based on the results of the in vitro metabolism study.” left out

[3] = test system: Mycobacterium tuberculosis H37Rv; type: in vivo, BALB/c mice
[4] = 28-day repeat-dose toxicity study in mice; type: in vivo, Balb/c mice; conditions: 100 mg/kg intragastric, once daily, 6 days a week, 4 weeks, Balb/c mice
Experimental: Administration groups of the compound YF027 of the present disclosure and its non-deuterated control compound A were set for a 28-day repeat-dose toxicity study in mice. Each compound was administered to 10 Balb/c mice (5 females and 5 males, purchased from Beijing Vital River Laboratory Animal Technology Co., Ltd.) by intragastric administration. The administration was performed once daily for 6 consecutive days a week for 4 consecutive weeks, and an 8% Tween 80 vehicle control group (10 Balb/c mice, 5 females and 5 males) was set for administration at the same volume using the same method. Table 12. Administration information of repeat-dose toxicity assay
During the administration period, the mice were observed every day. The body weight, appearance signs, behavior and activity, fecal traits, and local reactions at the site of administration were recorded. After the end of the administration, the gross anatomy was performed on the mice in the administration group and the control group. The serum of the mice was collected, and the heart, liver, spleen, kidney, lung, and brain tissues and organs were weighed to calculate organ coefficients. The tissue samples of all groups were subjected to histopathological detection, and the serum samples were analyzed for biochemical parameters of liver and kidney functions. The serum biochemical parameters included: alanine aminotransferase (ALT), aspartate aminotransferase (AST), alkaline phosphatase (ALP), urea (UREA), creatinine (CREA), total protein (TP), and albumin (ALB). Statistical analysis was performed to evaluate potential toxic effects of the compounds.

SMILES: CC(C)(C)c1cc(O)c(CN2CCCCC2)c2c1oc1c3ccc(O)cc3oc(=O)c12 [Compound A, reference compound]
- MIC90 [1]: ≤ 3.9 ng/mL
- AUC(0-inf) [2]: 121 ng·h/mL
- AUC(0-t) at 24 h [2]: 117 ng·h/mL
- Cmax [2]: 120 ng/mL and 948 ng/g
- Tmax [2]: 0.167 h
- half-life [2]: 4.35 h
- Inhibition rate (CYP2A6): 4.2%
- Inhibition rate (CYP2C19): -19.3%
- Inhibition rate (CYP2C9): -2.8%
- Inhibition rate (CYP2D6): -8.7%
- Inhibition rate (CYP3A4): 76.9%
- Inhibition rate (CYP1A2): -11.7%
- Inhibition rate (CYP2E1): -26.5%
- pulmonary Mycobacterium tuberculosis clearance rate ([3]; 100 mg/kg intragastrically, 4 weeks, mice): 87.7%
- reduction of pulmonary bacterial load ([3]; mouse, in vivo): 0.91 log
- mortality during the administration period [4]: no mice died
